According to the supplement of paper PMC10627819:

Assays:
[1] = tested on: S. pneumoniae D39V; test: Bliss interaction score (quartile over a dose matrix) (fitness difference); higher = more antagonism (negative = synergy)
Summary of the method: (§1)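 Fitness was defined as normalised growth: OD595 at the start of stationary phase divided by the plate's robust no-drug mean and capped at 1. Single-drug fitness was inferred from combination measurements. The Bliss score is observed fitness minus the product of the single-drug values, summarised by quartiles across technical, biological and donor/recipient replicates.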

[2] = tested on: S. aureus DSM 20231; test: as above
Summary of the method: as §1

[3] = tested on: B. subtilis 168; test: as above
Summary of the method: as §1

[4] = tested on: S. aureus Newman; test: as above
Summary of the method: as §1

[5] = tested on: S. pneumoniae D39V; test: fitness (endpoint OD595 vs no drug) (fraction); higher = more growth
Summary of the method: (§2)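 Bacterial fitness was scored as optical density at the stationary-phase transition relative to the robust mean of no-drug control wells. Scores are capped at 1. The growth data were OD595 readings every 30 min for 14 h at 37 °C, background-subtracted against the first reading, from 384-well plates inoculated at OD595 0.01 in TSB, LB Lennox or CY.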

[6] = tested on: S. aureus DSM 20231; test: as above
Summary of the method: as §2

[7] = tested on: B. subtilis 168; test: as above
Summary of the method: as §2

[8] = tested on: S. aureus Newman; test: as above
Summary of the method: as §2
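Wherever Bliss interaction score (quartile over a dose matrix) is given: first quartile when negative (synergy) and third quartile when positive (antagonism).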
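Wherever fitness (endpoint OD595 vs no drug) is given: OD595 on entry to stationary phase over no-drug wells; at most 1.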

CCC[C@@H]1C[C@@H](C(=O)N[C@@H]([C@H]2O[C@H](SC)[C@H](O)[C@@H](O)[C@H]2O)[C@H](C)Cl)N(C)C1 [Clindamycin] + C[C@@H]1O[C@@H]1P(=O)(O)O [Fosfomycin]
Details | Bliss interaction score
[1] | 0.11
[2] | -0.075
[3] | 0.0321
[4] | -0.253

Details | fitness
[5], first compound 0.0125 µg/mL, partner 1.25 µg/mL | 0.805
[5], first compound 0.0125 µg/mL, partner 2.5 µg/mL | 0.752
[5], first compound 0.0125 µg/mL, partner 5 µg/mL | 0.66
[5], first compound 0.015 µg/mL, partner 1.25 µg/mL | 0.787
[5], first compound 0.015 µg/mL, partner 2.5 µg/mL | 0.773
[5], first compound 0.015 µg/mL, partner 5 µg/mL | 0.736
[5], first compound 0.025 µg/mL, partner 1.25 µg/mL | 0.539
[5], first compound 0.025 µg/mL, partner 2.5 µg/mL | 0.497
[5], first compound 0.025 µg/mL, partner 5 µg/mL | 0.475
[5], first compound 0.03 µg/mL, partner 1.25 µg/mL | 0.621
[5], first compound 0.03 µg/mL, partner 2.5 µg/mL | 0.583
[5], first compound 0.03 µg/mL, partner 5 µg/mL | 0.525
[5], first compound 0.05 µg/mL, partner 1.25 µg/mL | 0.224
[5], first compound 0.05 µg/mL, partner 2.5 µg/mL | 0.203
[5], first compound 0.05 µg/mL, partner 5 µg/mL | 0.207
[5], first compound 0.06 µg/mL, partner 1.25 µg/mL | 0.368
[5], first compound 0.06 µg/mL, partner 2.5 µg/mL | 0.355
[5], first compound 0.06 µg/mL, partner 5 µg/mL | 0.291
[6], first compound 0.0312 µg/mL, partner 1.562 µg/mL | 0.292
[6], first compound 0.0312 µg/mL, partner 3.124 µg/mL | 0.104
[6], first compound 0.0625 µg/mL, partner 0.781 µg/mL | 0.122
[6], first compound 0.0625 µg/mL, partner 1.562 µg/mL | 0.0594
[6], first compound 0.0625 µg/mL, partner 3.124 µg/mL | 0.0236
[6], first compound 0.125 µg/mL, partner 0.781 µg/mL | 0.0473
[6], first compound 0.125 µg/mL, partner 1.562 µg/mL | 0.048
[6], first compound 0.125 µg/mL, partner 3.124 µg/mL | 0.0437
[7], first compound 0.0625 µg/mL, partner 1.562 µg/mL | 0.493
[7], first compound 0.0625 µg/mL, partner 3.124 µg/mL | 0.419
[7], first compound 0.0625 µg/mL, partner 6.248 µg/mL | 0.208
[7], first compound 0.125 µg/mL, partner 1.562 µg/mL | 0.311
[7], first compound 0.125 µg/mL, partner 3.124 µg/mL | 0.234
[7], first compound 0.125 µg/mL, partner 6.248 µg/mL | 0.129
[7], first compound 0.25 µg/mL, partner 1.562 µg/mL | 0.226
[7], first compound 0.25 µg/mL, partner 3.124 µg/mL | 0.183
[7], first compound 0.25 µg/mL, partner 6.248 µg/mL | 0.095
[8], first compound 0.0312 µg/mL, partner 0.781 µg/mL | 0.322
[8], first compound 0.0312 µg/mL, partner 1.562 µg/mL | 0.0838
[8], first compound 0.0312 µg/mL, partner 3.124 µg/mL | 0.0458
[8], first compound 0.0625 µg/mL, partner 0.781 µg/mL | 0.0719
[8], first compound 0.0625 µg/mL, partner 1.562 µg/mL | 0.0192
[8], first compound 0.0625 µg/mL, partner 3.124 µg/mL | 0.0091
[8], first compound 0.125 µg/mL, partner 0.781 µg/mL | 0.0513
[8], first compound 0.125 µg/mL, partner 1.562 µg/mL | 0.0428
[8], first compound 0.125 µg/mL, partner 3.124 µg/mL | 0.0521

fitness, [7], one replicate
Details | first compound 0.0039 µg/mL | first compound 0.0078 µg/mL | first compound 0.0156 µg/mL
partner 1.562 µg/mL | 0.7 | 0.637 | 0.556
partner 3.124 µg/mL | 0.633 | 0.564 | 0.51
partner 6.248 µg/mL | 0.55 | 0.549 | 0.45

CCC[C@@H]1C[C@@H](C(=O)N[C@@H]([C@H]2O[C@H](SC)[C@H](O)[C@@H](O)[C@H]2O)[C@H](C)Cl)N(C)C1 [Clindamycin] + C[n+]1ccc(-c2cc[n+](C)cc2)cc1 [Paraquat]
Details | Bliss interaction score
[1] | 0.0554
[2] | -0.0477
[3] | 0.0483
[4] | -0.112

fitness
Details | partner 1.25 µg/mL | partner 1.5 µg/mL | partner 2.5 µg/mL | partner 3 µg/mL | partner 5 µg/mL | partner 6 µg/mL
[5], first compound 0.0125 µg/mL | – | 0.744 | – | 0.749 | – | 0.733
[5], first compound 0.025 µg/mL | – | 0.489 | – | 0.482 | – | 0.458
[5], first compound 0.05 µg/mL | – | 0.24 | – | 0.228 | – | 0.195
[6], first compound 0.0625 µg/mL | 0.181 | – | 0.192 | – | 0.14 | –
[6], first compound 0.125 µg/mL | 0.0613 | – | 0.113 | – | 0.0771 | –
[7], first compound 0.0625 µg/mL | 0.607 | – | 0.513 | – | 0.512 | –
[7], first compound 0.125 µg/mL | 0.392 | – | 0.366 | – | 0.359 | –
[7], first compound 0.25 µg/mL | 0.363 | – | 0.352 | – | 0.281 | –
[8], first compound 0.0312 µg/mL | 0.607 | – | 0.57 | – | 0.516 | –
[8], first compound 0.0625 µg/mL | 0.271 | – | 0.241 | – | 0.207 | –
[8], first compound 0.125 µg/mL | 0.0526 | – | 0.0427 | – | 0.0913 | –

fitness, one replicate
Details | first compound 0.0039 µg/mL | first compound 0.0078 µg/mL | first compound 0.015 µg/mL | first compound 0.0156 µg/mL | first compound 0.03 µg/mL | first compound 0.06 µg/mL
[5], partner 1.5 µg/mL | – | – | 0.934 | – | 0.85 | 0.692
[5], partner 3 µg/mL | – | – | 0.949 | – | 0.92 | 0.763
[5], partner 6 µg/mL | – | – | ≥ 1 | – | 0.914 | 0.805
[7], partner 1.25 µg/mL | ≥ 1 | 0.914 | – | 0.847 | – | –
[7], partner 2.5 µg/mL | 0.958 | 0.846 | – | 0.857 | – | –
[7], partner 5 µg/mL | 0.972 | 0.873 | – | 0.83 | – | –
